Assay results as given in patent publication US20110034526A1, “Benzimidazole Compounds” (Wyeth LLC, priority 2007, published 2011).

Columns and labels:
human LXRβ = target: T1, human LXRβ (Homo sapiens, UniProt P55055); test: Ligand-binding test procedure for human LXRβ (3H T0901317 tracer, flash plates)
T1 construct: biotin (biotinylated); made in house; host or cells: E. coli (crude extract)
T1 sequence (P55055 1-460): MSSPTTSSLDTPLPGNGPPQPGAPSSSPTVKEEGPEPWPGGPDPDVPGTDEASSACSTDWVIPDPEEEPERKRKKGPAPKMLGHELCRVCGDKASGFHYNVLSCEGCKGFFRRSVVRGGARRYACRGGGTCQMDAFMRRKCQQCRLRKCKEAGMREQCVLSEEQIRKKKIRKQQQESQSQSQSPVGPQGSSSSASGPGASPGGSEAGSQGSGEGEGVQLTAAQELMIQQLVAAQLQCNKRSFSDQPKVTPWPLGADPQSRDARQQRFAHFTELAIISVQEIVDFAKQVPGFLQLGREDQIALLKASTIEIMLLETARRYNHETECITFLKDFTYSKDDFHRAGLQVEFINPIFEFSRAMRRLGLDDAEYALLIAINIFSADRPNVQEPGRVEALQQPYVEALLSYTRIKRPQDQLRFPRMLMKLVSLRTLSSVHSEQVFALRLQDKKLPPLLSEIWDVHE
Protocol: Receptor source: E. coli extracted from cells expressing biotinylated hLXRβ. Extract was made in a similar buffer as above, but with 50 mM TRIS.
Washed streptavidin and coated flash plates with wash buffer. Diluted receptor extract to give Bmax ˜4000 cpm and add to the wells. Wrapped the plates in aluminum foil and stored them at +4° C. overnight.
(§1) Made a dilution series in DMSO of the test ligands. Made a 5 nM solution of the radioactive tracer in buffer. Mixed 250 μl diluted tracer with 5 μl of the test ligand from each concentration of the dilution series. Washed the receptor-coated flash plates. Added 200 μl per well of the ligand/radiolabel mixture to the receptor-coated flash plates. Wrapped the plates in aluminum foil and incubate at +4° C. over night.
Aspirated wells, and washed the flashed plates. Sealed the plate. Measured the remaining radioactivity in the plate.

human LXRα = target: T2, human LXRα (Homo sapiens, UniProt Q13133); test: Ligand-binding test procedure for human LXRα (3H T0901317 tracer, flash plates); conditions: biotinylated hLXRα, tracer 3H T0901317
T2 construct: biotin (biotinylated); made in house; host or cells: E. coli (crude extract)
T2 sequence (Q13133 1-447): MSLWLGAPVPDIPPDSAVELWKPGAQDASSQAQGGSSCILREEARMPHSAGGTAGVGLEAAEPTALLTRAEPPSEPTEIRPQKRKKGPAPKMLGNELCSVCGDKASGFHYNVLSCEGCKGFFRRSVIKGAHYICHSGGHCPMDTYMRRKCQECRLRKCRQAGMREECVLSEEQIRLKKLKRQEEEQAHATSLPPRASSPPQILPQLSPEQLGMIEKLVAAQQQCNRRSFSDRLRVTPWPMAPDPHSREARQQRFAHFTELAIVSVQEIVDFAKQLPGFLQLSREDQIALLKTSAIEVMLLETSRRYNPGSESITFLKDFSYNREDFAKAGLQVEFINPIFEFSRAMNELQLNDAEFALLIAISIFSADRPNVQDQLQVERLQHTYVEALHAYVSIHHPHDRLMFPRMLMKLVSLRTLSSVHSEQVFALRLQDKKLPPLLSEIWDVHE
Protocol: Receptor source: E. coli extract from cells expressing biotinylated hLXRcc. Extract was made in a similar buffer as above, but with 50 mM TRIS.
Washed streptavidin and coated flash plates with wash buffer. Diluted receptor extract to give Bmax ˜4000 cpm and add to the wells. Wrapped the plates in aluminum foil and stored them at +4° C. over night.
as §1
Aspirated wells, and wash the flashed plates. Sealed the plate. Measured the remaining radioactivity in the plate.

| SMILES | IC50 (human LXRβ) [nM] | IC50 (human LXRα) [nM] |
| --- | --- | --- |
| Cc1nc2c(Cl)cccc2n1-c1cccc(Oc2cc(S(C)(=O)=O)ccc2Br)c1 [Example 51, 1-{3-[2-bromo-5-(methylsulfonyl)phenoxy]phenyl}-4-chloro-2-methyl-1H-benzimidazole] | 100 | 646 |
| CCc1nc2c(C(F)(F)F)cccc2n1-c1ccc(OCc2cccc(S(C)(=O)=O)c2)cc1 [Example 85, 2-ethyl-1-(4-{[3-(methylsulfonyl)benzyl]oxy}phenyl)-4-(trifluoromethyl)-1H-benzimidazole] | 1890 | 5070 |
| Cc1cc(Oc2cc(F)cc(S(C)(=O)=O)c2)ccc1-n1c(C)nc2c(C(F)(F)F)cccc21 [Example 101, 1-{4-[3-fluoro-5-(methylsulfonyl)phenoxy]-2-methylphenyl}-2-methyl-4-(trifluoromethyl)-1H-benzimidazole] | 405 | 4830 |
| CCCS(=O)(=O)c1cccc(Oc2ccc(Cl)c(-n3c(C)nc4c(Cl)cccc43)c2)c1 [Example 56, 4-chloro-1-{2-chloro-5-[3-(propylsulfonyl)phenoxy]phenyl}-2-methyl-1H-benzimidazole] | 164 | 2500 |
| CS(=O)(=O)c1cccc(Oc2ccc(-n3cnc4c(C(F)(F)F)cccc43)c(Cl)c2)c1 [Example 104, 1-{2-chloro-4-[3-(methylsulfonyl)phenoxy]phenyl}-4-(trifluoromethyl)-1H-benzimidazole] | 479 | 2580 |
| Cc1nc2c(Cl)cccc2n1-c1cc(Oc2ccccc2S(C)(=O)=O)ccc1Cl [Example 63, 4-chloro-1-{2-chloro-5-[2-(methylsulfonyl)phenoxy]phenyl}-2-methyl-1H-benzimidazole] | 309 | 2500 |
| CCS(=O)(=O)c1cccc(Oc2cccc(-n3c(C(F)(F)F)nc4c(C(F)(F)F)cccc43)c2)c1 [Example 77, 1-{3-[3-(ethylsulfonyl)phenoxy]phenyl}-2,4-bis(trifluoromethyl)-1H-benzimidazole] | 198 | 2500 |
| CCc1nc2c(C(F)(F)F)cccc2n1-c1ccc(Oc2ccc(C#N)c(S(C)(=O)=O)c2)cc1 [Example 88, 4-{4-[2-ethyl-4-(trifluoromethyl)-1H-benzimidazol-1-yl]phenoxy}-2-(methylsulfonyl)benzonitrile] | 1920 | 15100 |
| CCS(=O)(=O)c1cccc(Oc2ccc(-n3cnc4c(C(F)(F)F)cccc43)c(C)c2)c1 [Example 91, 1-{4-[3-(ethylsulfonyl)phenoxy]-2-methylphenyl}-4-(trifluoromethyl)-1H-benzimidazole] | 634 | 6110 |
| CCS(=O)(=O)c1ccc(Oc2ccc(Cl)c(-n3c(C)nc4c(Cl)cccc43)c2)cc1 [Example 62, 4-chloro-1-{2-chloro-5-[4-(ethylsulfonyl)phenoxy]phenyl}-2-methyl-1H-benzimidazole] | 65 | 812 |
| CCS(=O)(=O)c1cc(F)cc(Oc2ccc(-n3c(C)nc4c(C(F)(F)F)cccc43)c(C)c2)c1 [Example 99] | 301 | 3690 |
| Cc1nc2c(C(F)(F)F)cccc2n1-c1cccc(Oc2ccc(S(C)(=O)=O)cc2)c1 [Example 14, 2-methyl-1-{3-[4-(methylsulfonyl)phenoxy]phenyl}-4-(trifluoromethyl)-1H-benzimidazole] | 435 | 2950 |
| Cc1nc2c(C(F)(F)F)cccc2n1-c1cccc(Oc2ccccc2S(C)(=O)=O)c1 [Example 12, 2-methyl-1-{3-[2-(methylsulfonyl)phenoxy]phenyl}-4-(trifluoromethyl)-1H-benzimidazole] | > 1000 | > 1000 |
| Cc1nc2c(Cl)cccc2n1-c1cccc(Oc2cccc(S(=O)(=O)CCC(C)C)c2)c1 [Example 53] | 20 | 258 |
| Cc1nc2c(C(F)(F)F)cccc2n1-c1cccc(Oc2ccc(S(=O)(=O)CCCO)cc2)c1 [Example 15, 3-[(4-{3-[2-methyl-4-(trifluoromethyl)-1H-benzimidazol-1-yl]phenoxy}phenyl)sulfonyl]propan-1-ol] | 945 | 4840 |
| Cc1cc(Oc2cc(F)cc(S(C)(=O)=O)c2)ccc1-n1cnc2c(C(F)(F)F)cccc21 [Example 96, 1-{4-[3-fluoro-5-(methylsulfonyl)phenoxy]-2-methylphenyl}-4-(trifluoromethyl)-1H-benzimidazole] | 2620 | 16000 |
| Cc1nc2c(Cl)cccc2n1-c1cccc(Oc2ccc(S(C)(=O)=O)cc2F)c1 [Example 52, 4-chloro-1-{3-[2-fluoro-4-(methylsulfonyl)phenoxy]phenyl}-2-methyl-1H-benzimidazole] | 357 | 3000 |
| Cc1nc2c(C(F)(F)F)cccc2n1-c1ccc(Oc2cccc(S(C)(=O)=O)c2)cc1 [Example 64, 2-methyl-1-{4-[3-(methylsulfonyl)phenoxy]phenyl}-4-(trifluoromethyl)-1H-benzimidazole] | 1.7 | 8.4 |
| CCCS(=O)(=O)c1cccc(Oc2cccc(-n3c(C)nc4c(Cl)cccc43)c2)c1 [Example 43, 4-chloro-2-methyl-1-{3-[3-(propylsulfonyl)phenoxy]phenyl}-1H-benzimidazole] | 3.7 | 14 |
| CCS(=O)(=O)c1cccc(Oc2ccc(-n3cnc4c(C(F)(F)F)cccc43)c(Cl)c2)c1 [Example 105, 1-{2-chloro-4-[3-(ethylsulfonyl)phenoxy]phenyl}-4-(trifluoromethyl)-1H-benzimidazole] | 357 | 2710 |
| CS(=O)(=O)c1cc(F)cc(Oc2ccc(-n3cnc4c(C(F)(F)F)cccc43)c(Cl)c2)c1 [Example 106, 1-{2-chloro-4-[3-fluoro-5-(methylsulfonyl)phenoxy]phenyl}-4-(trifluoromethyl)-1H-benzimidazole] | 1230 | 3990 |
| CCS(=O)(=O)c1cc(F)cc(Oc2ccc(-n3cnc4c(C(F)(F)F)cccc43)c(C)c2)c1 [Example 97, 1-{4-[3-(ethylsulfonyl)-5-fluorophenoxy]-2-methylphenyl}-4-(trifluoromethyl)-1H-benzimidazole] | 1110 | 8000 |
| Cc1nc2c(C(F)(F)F)cccc2n1-c1ccc(OCc2cccc(S(C)(=O)=O)c2)cc1 [Example 87, 2-methyl-1(4-{[3-(methylsulfonyl)benzyl]oxy}phenyl)-4-(trifluoromethyl)-1H-benzimidazole] | > 1000 | > 1000 |
| CS(=O)(=O)c1cccc(Oc2ccc(-n3c(C(F)(F)F)nc4c(C(F)(F)F)cccc43)cc2)c1 [Example 70, 1-{4-[3-(methylsulfonyl)phenoxy]phenyl}-2,4-bis(trifluoromethyl)-1H-benzimidazole] | 278 | 4500 |
| Cc1cc(Oc2cccc(S(=O)(=O)C(C)C)c2)ccc1-n1cnc2c(C(F)(F)F)cccc21 [Example 92, 1-(2-methyl-4-{3-[(1-methylethyl)sulfonyl]phenoxy}phenyl)-4-(trifluoromethyl)-1H-benzimidazole] | 348 | 3260 |
| CCS(=O)(=O)c1ccc(Oc2cccc(-n3c(C)nc4c(Cl)cccc43)c2)cc1 [Example 49, 4-chloro-1-{3-[4-(ethylsulfonyl)phenoxy]phenyl}-2-methyl-1H-benzimidazole] | 17 | 85 |
| CS(=O)(=O)c1cc(F)cc(Oc2ccc(-n3c(C(F)(F)F)nc4c(C(F)(F)F)cccc43)cc2)c1 [Example 72, 1-{4-[3-fluoro-5-(methylsulfonyl)phenoxy]phenyl}-2,4-bis(trifluoromethyl)-1H-benzimidazole] | 512 | 4700 |
| Cc1nc2c(C(F)(F)F)cccc2n1-c1cccc(Oc2cccc(S(=O)(=O)CCC(C)(C)O)c2)c1 [Example 11, 2-methyl-4-[(3-{3-[2-methyl-4-(trifluoromethyl)-1H-benzimidazol-1-yl]phenoxy}-phenyl)sulfonyl]butan-2-ol] | 290 | 7000 |
